SMILES strings stand for the structures.

As usually defined, the MIC is the lowest concentration that inhibits growth of the organism. A lower MIC goes with greater potency.

One assay has as its system DNA-EB system. As to the kind of experiment: DNA-ethidium bromide fluorescence competition. Type of assay: binding. The procedure: The fluorescence emission experiments were carried out in a Perkin Elmer LS 55 spectrofluorimeter. A pulsed Xenon lamp (50 Hz) provided the excitation light. A thermostated water bath recycler linked to the cell holder provided temperature control within ± 0.1 °C. The measurements were done in a 1000 µL quartz cell with an optical path length of 1.0 cm with the complexes solution added directly to the DNA-EB (ethidium bromide) solution in the cell. A glass syringe connected to a Mitutoyo micrometric screw added accurate volumes each time (one complete turn of the screw is 8.2 µL, 1/50 of a turn is the minimum possible addition).
Moreover, this complex reduces the emission of the EB-DNA system to ca. 40 % of its initial intensity with an interaction constant of (1.18 ± 0.03) × 10^4 M^−1 (Fig. S22, constant calculated with HypSpec2014 (28)).
Considering the results of the melting temperature assay, the DNA-EB fluorescence quenching was also used to test complex 7. […] The accessible fraction fa was determined as 0.26 and the interaction constant as (1.44 ± 0.02) ×10^5 M^−1 (HypSpec2014 (28)). As EB has a second mode of interaction with DNA due to electrostatic interactions on the external part of the biomolecule backbone (30), it is possible that the complexes are only being able to reach for this fraction. […]

For another assay, the system named is S. aureus MRSA 272123. As to the kind of experiment: MIC determination. The following applies: 18 h. Type of assay: cell-based, Staphylococcus aureus.
For another assay, the system named is A-549 cells. As to the kind of experiment: ROS activation via dihydroethidium staining, flow cytometry. Type of assay: cell-based. An excerpt:
Since reactive oxygen species appeared to be involved in the nicking activity of the complexes (Supplementary Figure S24), we investigated whether there was an increase in ROS formation in cells upon drug treatment. Dihydroethidium (DHE) is a reduced form of ethidium, after oxidation with superoxide (ROS), it is converted into 2-hydroxy ethidium, which is a chemical that emits red fluorescence and intercalates DNA. […] Similar results were obtained using A-549 cells, but with much milder induction of ROS except for 8, which remained high (Supplementary Figure S26).
5 × 10^4 number of A-375 and A-549 cells were seeded on 12-well plates, and the next day cells were treated with either copper complexes (calculated IC70 values) or cisplatin (15 μM). Following 48 h of treatment, cells were trypsinized, centrifuged and resuspended in PBS solution supplemented with 1% fetal bovine serum (FBS) (10^6 cells/mL).
Oxidative stress levels were assessed by Muse Oxidative Stress Kit (Luminex, MCH100111) using the same protocol as previously described (21).

Take `CC(=O)[O-].O=C(NN=Cc1ccc2cccc([O-])c2n1)c1ccccc1.[Cu+2]` [Complex 1, [Cu(HL^1)(AcO)]]: the interaction constant result with DNA-EB system (DNA-EB fluorescence quenching, HypSpec2014) was “(1.18 ± 0.03) × 10^4 M^−1”. For the same compound, the “emission of the EB-DNA system, % of its initial intensity” value in the assay with DNA-EB system (titration 0 – 51.6 µM, HEPES pH 7.4) is “ca. 40%”. The compound also showed a minimal inhibitory concentration (MIC) in the assay with S. aureus MRSA 272123 of 50 µM.
`COc1ccc(C([O-])=NN=Cc2ccc3cccc([O-])c3n2)cc1.[Cu+2]` [Complex 5, [Cu(L^5)]3]: the “ROS induction, in words” value in the assay on A-549 cells is listed as “milder ROS induction”.

These data come from publication PMC10072326, “Promising anticancer agents based on 8-hydroxyquinoline hydrazone copper(II) complexes” (Frontiers in Chemistry, 2023).
